Sleep latency data for one molecule are collected here from patent US11554151B2, “Composition containing Perilla frutescens fermented extract for prevention, alleviation, or treatment of sleep disorder” (AJOU UNIVERSITY INDUSTRY-ACADEMIC COOPERATION FOUNDATION, priority 2017, dated 2023).

This assay has as its system ICR mice. In words: Pentobarbital-induced sleep test (sleep latency and total sleeping time). It counts as in vivo. To be noted: Example 2-1; positive control, 1 mg/kg oral, 30 min before pentobarbital 45 mg/kg i.p. On the procedure:
The sleep improvement effects of the Perilla frutescens fermented extract and conventionally sold sedatives were intended to be confirmed from comparison of sleep latency and total sleeping time.
Specifically, 0.9% physiological saline, 10 mg/kg of the Perilla frutescens extract (Perilla-W) or fermented extract thereof (Perilla-B) prepared in [Example 1], and 1 mg/kg of diazepam (Myung In Pharm. Co., Ltd.) were each orally administered to ICR mice (OrientBio). 30 minutes after the administration of the test materials, 45 mg/kg of a nerve stabilizer pentobarbital (HANLIM PHARM. Co., Ltd.) was intraperitoneally administered to induce sleep. After the administration of pentobarbital, the time required to go into deep sleep (sleep latency) and the total sleep maintenance time (total sleeping time) were measured for each test material administration group. Physiological saline and diazepam were used as a control and a positive control, respectively.
Specifically, sleep latency and total sleeping time ere measured in the same manner as in Example <2-1> using 0.9% physiological saline and 10 mg/kg of the Perilla frutescens extract (Perilla-W) or fermented extract thereof (Perilla-B, Perilla-L, and Perilla-S) prepared in [Example 1].

Molecules are shown by their SMILES.

In the case of `CN1C(=O)CN=C(c2ccccc2)c2cc(Cl)ccc21` [diazepam], the sleep latency was found to be 220 s.
